Columns and labels:
[1] = Toxicity in C57BL/6 mouse assessed as effect on social behavior up to 50 mg/kg, ip administered for 5 days/week for two cycles; assay type: organism-based; conditions: in vivo, 120 h
[2] = target: T1, Protein deacetylase HDAC6 (Mus musculus) (UniProt Q9Z2V5); experiment: Inhibition of HDAC6 in C57BL/6 mouse regulatory T cells assessed as increase in Treg-mediated suppression of anti-CD3 induced CD4+ cell division at 1 uM after 72 hrs in presence mitomycin-treated APC by CFSE dye based flow cytometric assay relative to control
T1 sequence (whole entry): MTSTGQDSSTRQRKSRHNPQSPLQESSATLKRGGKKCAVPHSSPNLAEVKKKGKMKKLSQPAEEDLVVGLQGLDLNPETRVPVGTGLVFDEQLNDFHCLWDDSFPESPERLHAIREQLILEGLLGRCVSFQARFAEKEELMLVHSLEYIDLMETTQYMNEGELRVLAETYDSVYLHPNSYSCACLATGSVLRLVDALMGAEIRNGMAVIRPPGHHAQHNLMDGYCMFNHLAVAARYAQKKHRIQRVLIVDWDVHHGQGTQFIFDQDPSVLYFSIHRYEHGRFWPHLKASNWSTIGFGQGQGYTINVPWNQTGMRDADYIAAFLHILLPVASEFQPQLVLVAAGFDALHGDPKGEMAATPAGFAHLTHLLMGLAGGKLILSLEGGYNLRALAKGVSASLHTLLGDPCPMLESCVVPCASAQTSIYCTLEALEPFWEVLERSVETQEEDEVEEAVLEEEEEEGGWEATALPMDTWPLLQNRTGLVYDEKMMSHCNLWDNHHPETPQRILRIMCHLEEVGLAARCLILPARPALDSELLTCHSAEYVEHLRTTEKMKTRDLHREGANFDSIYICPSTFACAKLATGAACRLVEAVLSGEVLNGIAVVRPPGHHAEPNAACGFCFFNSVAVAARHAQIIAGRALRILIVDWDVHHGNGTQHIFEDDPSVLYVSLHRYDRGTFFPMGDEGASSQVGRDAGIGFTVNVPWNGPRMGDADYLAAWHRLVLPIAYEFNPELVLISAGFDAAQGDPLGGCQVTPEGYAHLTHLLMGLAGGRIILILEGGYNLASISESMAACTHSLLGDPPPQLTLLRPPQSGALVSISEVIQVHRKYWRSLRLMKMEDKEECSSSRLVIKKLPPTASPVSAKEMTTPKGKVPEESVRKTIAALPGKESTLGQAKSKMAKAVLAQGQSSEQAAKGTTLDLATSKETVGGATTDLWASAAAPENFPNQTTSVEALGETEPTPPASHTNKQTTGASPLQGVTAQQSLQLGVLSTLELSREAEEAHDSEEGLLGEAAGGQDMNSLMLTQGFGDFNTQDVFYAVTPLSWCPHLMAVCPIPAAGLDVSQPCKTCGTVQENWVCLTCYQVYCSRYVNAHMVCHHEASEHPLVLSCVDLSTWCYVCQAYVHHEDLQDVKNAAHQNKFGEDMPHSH

[3] = Selectivity ratio of IC50 for C-terminal His-tagged human HDAC9 (604 to 1066 residues) expressed in baculovirus infected sf9 insect cells to IC50 for human N-terminal GST-tagged HDAC6 expressed in baculovirus infected sf9 insect cells
[4] = Toxicity in C57BL/6 mouse assessed as effect on WBC level at 50 mg/kg, ip administered for 5 days/week for two cycles and measured 60 mins post last dose by beckman coulter counting method relative to control; assay type: organism-based; conditions: in vivo, 1 h
[5] = Stability in rat plasma assessed as parent compound remaining at 100 uM after 4 hrs by LC-MS/MS analysis; assay type: ADME, cell-free; conditions: read-out: Stability
[6] = Selectivity ratio of IC50 for N-terminal GST-tagged human HDAC7 (518 to end residues) expressed in baculovirus infected sf9 insect cells to IC50 for human N-terminal GST-tagged HDAC6 expressed in baculovirus infected sf9 insect cells

Structure (SMILES): Cn1c(Sc2ccc(C(=O)NO)cc2)nnc1-c1cccs1
- Activity [1]: Non-Toxic
- fold change (FC) [2]: 3.4
- Ratio IC50 [3]: 132
- Activity [4]: -30%
- remaining at 4 h, 100 µM [5]: 86%
- Ratio IC50 [6]: 99
